Test results: patent US12209096B2, “Compounds and compositions for inducing chondrogenesis” (NOVARTIS AG, priority 2017, dated 2025)
Where two headings read alike, the source gives them in different places.

Test system: NHACs
Assay: calcium flux assay
Format: cell-based, human
Conditions: for Emax: read-out: (A) % Efficacy
Outline: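 FLIPR fluorescence (ex 470–495 nm, em 515–575 nm) was read before and after compound dispense at the indicated dose. Chondrocytes (NHACs), 2000 cells/well, had been dye-loaded 24 h after plating with Calcium 5 in HBSS/HEPES plus 5 mM probenecid, 1 h, room temperature.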

Row | EC50 (Homo sapiens) [µM] | EC50 [µM] | Compound | Emax (Homo sapiens) [%] | (A) % Efficacy [%]
1 | > 50 | – | Cc1cc([C@H]2[C@H]3O[C@H]([C@H](O)[C@@H]3O)[C@@H]2C(=O)Nc2cccc(C(F)(F)F)c2)ccn1 [Example 158, (1S,2R,3S,4R,5S,6R)-5,6-dihydroxy-3-(2-methylpyridin-4-yl)-N-(3-(trifluoromethyl)phenyl)-7-oxabicyclo[2.2.1]heptane-2-carboxamide] | 31 | –
2 | 10 | – | O=C(Nc1ccc(Cl)c(Cl)c1)[C@H]1[C@@H]2O[C@@H]([C@H]3C[C@H]32)[C@@H]1c1cnc(F)nc1 [Example 129, (1S,2S,4R,5R,6R,7S)—N-(3,4-dichlorophenyl)-7-(2-fluoropyrimidin-5-yl)-8-oxatricyclo[3.2.1.0^2,4]octane-6-carboxamide] | 146 | –
3 | > 50 | – | Cc1cc([C@@H]2[C@@H]3O[C@@H]([C@H]4C[C@H]43)[C@@H]2C(=O)Nc2cnc(Cl)c(Cl)c2)ccn1 (single isomer, unassigned) [Example 46] | 0 | –
4 | 25 | – | O=C(Nc1ccc(Cl)c(Cl)c1)[C@H]1[C@@H]2O[C@@H]([C@H]3C[C@H]32)[C@@H]1c1ccnc(F)c1 [Example 119, (1S,2S,4R,5R,6R,7S)—N-(3,4-dichlorophenyl)-7-(2-fluoropyridin-4-yl)-8-oxatricyclo[3.2.1.0^2,4]octane-6-carboxamide] | 149 | –
5 | > 50 | – | Cc1cc([C@H]2[C@H]3O[C@H](C[C@H]3N[C@H]3C[C@H](O)C3)[C@@H]2C(=O)Nc2ccc(Cl)c(Cl)c2)ccn1 [Example 170, (1R,2R,3S,4R,5R)—N-(3,4-dichlorophenyl)-5-(((1r,3R)-3-hydroxycyclobutyl)amino)-3-(2-methylpyridin-4-yl)-7-oxabicyclo[2.2.1]heptane-2-carboxamide] | 37 | –
6 | 30 | – | Nc1ncc([C@H]2[C@H]3O[C@H](C[C@@H]3F)[C@@H]2C(=O)Nc2ccc(Cl)c(Cl)c2)cn1 [Example 113, (1R,2R,3S,4R,5S)-3-(2-aminopyrimidin-5-yl)-N-(3,4-dichlorophenyl)-5-fluoro-7-oxabicyclo[2.2.1]heptane-2-carboxamide] | 103 | –
7 | 7.8 | – | O=C(Nc1ccc(Cl)c(Cl)c1)[C@H]1[C@@H](c2ccncc2)[C@H]2O[C@@H]1C[C@@H]2O (racemic) [Example 47, rac-(1R,2S,3S,4R,5S)—N-(3,4-dichlorophenyl)-5-hydroxy-3-(pyridin-4-yl)-7-oxabicyclo[2.2.1]heptane-2-carboxamide] | 38 | –
8 | > 50 | – | O=C(Nc1ccc(Cl)c(Cl)c1)[C@@H]1[C@@H](c2cnc(F)nc2)[C@H]2O[C@@H]1C[C@@H]2O [Example 151, (1R,2R,3S,4R,5S)—N-(3,4-dichlorophenyl)-3-(2-fluoropyrimidin-5-yl)-5-hydroxy-7-oxabicyclo[2.2.1]heptane-2-carboxamide] | 0 | –
9 | > 50 | – | O=C(Nc1cccc(C(F)(F)F)c1)[C@@H]1[C@@H](c2ccncc2)[C@H]2O[C@@H]1C[C@@H]2O [Example 88, (1R,2R,3S,4R,5S)-5-hydroxy-3-(pyridin-4-yl)-N-(3-(trifluoromethyl)phenyl)-7-oxabicyclo[2.2.1]heptane-2-carboxamide] | 27 | –
10 | – | > 50 | O=C(Nc1cnc(Cl)c(Cl)c1)[C@@H]1[C@@H]2O[C@@H]([C@H]3C[C@H]32)[C@@H]1c1ccncc1 [Example 43a, (1S,2S,4R,5R,6S,7S)—N-(5,6-dichloropyridin-3-yl)-7-(pyridin-4-yl)-8-oxatricyclo[3.2.1.0^24]octane-6-carboxamide] | – | 0
11 | > 50 | – | Cc1cc([C@@H]2[C@@H](C(=O)Nc3ccc(Cl)c(Cl)c3)[C@H]3C[C@@](C)(O)[C@@H]2O3)ccn1 [Example 178, (1R,2R,3S,4R,5R)—N-(3,4-dichlorophenyl)-5-hydroxy-5-methyl-3-(2-methylpyridin-4-yl)-7-oxabicyclo[2.2.1]heptane-2-carboxamide] | 1 | –
12 | 11 | – | COc1cc([C@H]2[C@H]3O[C@H]([C@@H]4C[C@@H]43)[C@H]2C(=O)Nc2ccc(Cl)c(Cl)c2)ccn1 [Example 24, (1S,2S,4R,5R,6S,7S)-N-(3,4-dichlorophenyl)-7-(2-methoxypyridin-4-yl)-8-oxatricyclo[3.2.1.0^2,4]octane-6-carboxamide] | 71 | –
13 | 19 | – | O=C(Nc1cccc(C(F)(F)F)c1)[C@H]1[C@@H]2O[C@@H]([C@H]3C[C@H]32)[C@@H]1c1ccncc1 [Example 131, (1S,2S,4R,5R,6R,7S)-7-(pyridin-4-yl)-N-(3-(trifluoromethyl)phenyl)-8-oxatricyclo[3.2.1.0^2,4]octane-6-carboxamide] | 360 | –
14 | 25 | – | COc1cc([C@H]2[C@H]3O[C@H](C[C@@H]3F)[C@H]2C(=O)Nc2ccc(Cl)c(Cl)c2)ccn1 [Example 19, (1R,2S,3S,4R,5S)-N-(3,4-dichlorophenyl)-5-fluoro-3-(2-methoxypyridin-4-yl)-7-oxabicyclo[2.2.1]heptane-2-carboxamide] | 258 | –
15 | > 50 | – | COc1ccc(NC(=O)[C@@H]2[C@@H]3O[C@@H]([C@H]4C[C@H]43)[C@@H]2c2ccc(C)nc2)cn1 [Example 31, (1S,2S,4R,5R,6S,7S)-N-(6-methoxypyridin-3-yl)-7-(6-methylpyridin-3-yl)-8-oxatricyclo[3.2.1.0^2,4]octane-6-carboxamide] | 0 | –
16 | > 50 | – | Cc1cc([C@H]2[C@H]3O[C@H](C[C@@H]3F)[C@H]2C(=O)Nc2cccc(C(F)(F)F)c2)ccn1 [Example 17, (1R,2S,3S,4R,5S)-5-fluoro-3-(2-methylpyridin-4-yl)-N-[3-(trifluoromethyl)phenyl]-7-oxabicyclo[2.2.1]heptane-2-carboxamide] | 0 | –
17 | 17 | – | O=C(Nc1ccc(Cl)c(Cl)c1)[C@@H]1[C@@H](c2ccnc(C(F)(F)F)c2)[C@H]2O[C@@H]1C[C@@H]2O (racemic) [Example 145, rac-(1R,2R,3S,4R,5S)—N-(3,4-dichlorophenyl)-5-hydroxy-3-(2-(trifluoromethyl)pyridin-4-yl)-7-oxabicyclo[2.2.1]heptane-2-carboxamide] | 246 | –
18 | 18 | – | Cc1ncc([C@H]2[C@H]3O[C@H]([C@@H]4C[C@@H]43)[C@H]2C(=O)Nc2ccc(Cl)c(Cl)c2)cn1 [Example 42, (1S,2S,4R,5R,6S,7S)—N-(3,4-dichlorophenyl)-7-(2-methylpyrimidin-5-yl)-8-oxatricyclo[3.2.1.0^2,4]octane-6-carboxamide] | 57 | –
19 | > 50 | – | Cc1cc([C@H]2[C@H]3O[C@H]([C@H](O)[C@@H]3O)[C@@H]2C(=O)Nc2ccnc(C(F)(F)F)c2)ccn1 [Example 161, (1S,2R,3S,4R,5S,6R)-5,6-dihydroxy-3-(2-methylpyridin-4-yl)-N-(2-(trifluoromethyl)pyridin-4-yl)-7-oxabicyclo[2.2.1]heptane-2-carboxamide] | 29 | –
20 | > 50 | – | Nc1ncc([C@H]2[C@H]3O[C@H](C[C@@H]3O)[C@@H]2C(=O)Nc2ccc(Cl)c(Cl)c2)cn1 [Example 143, (1R,2R,3S,4R,5S)-3-(2-aminopyrimidin-5-yl)-N-(3,4-dichlorophenyl)-5-hydroxy-7-oxabicyclo[2.2.1]heptane-2-carboxamide] | 0 | –
21 | > 50 | – | Cc1cc([C@H]2[C@@H]3C[C@@H](O)C(O3)[C@H]2C(=O)Nc2cccc(C(F)(F)F)c2)ccn1 (stereo in doubt) [Example 9, (1R,2S,3S,4S,6R)-6-hydroxy-3-(2-methylpyridin-4-yl)-N-[3-(trifluoromethyl)phenyl]-7-oxabicyclo[2.2.1]heptane-2-carboxamide] | 0 | –
22 | > 50 | – | COc1ccc(NC(=O)[C@@H]2[C@@H](c3ccnc(C)c3)[C@H]3O[C@@H]2C[C@H]3F)cn1 [Example 97, (1R,2R,3S,4R,5R)-5-fluoro-N-(6-methoxypyridin-3-yl)-3-(2-methylpyridin-4-yl)-7-oxabicyclo[2.2.1]heptane-2-carboxamide] | 2 | –
23 | 20 | – | O=C(Nc1ccc(Cl)c(Cl)c1)[C@@H]1[C@@H](c2ccnc(F)c2F)[C@H]2O[C@@H]1C[C@@H]2O [Example 146, (1R,2R,3S,4R,5S)—N-(3,4-dichlorophenyl)-3-(2,3-difluoropyridin-4-yl)-5-hydroxy-7-oxabicyclo[2.2.1]heptane-2-carboxamide] | 150 | –
24 | 0.84 | – | COc1cc([C@H]2[C@H]3O[C@H](C[C@@H]3O)[C@H]2C(=O)Nc2ccc(Cl)c(Cl)c2)ccn1 (single isomer, unassigned) [Example 49a] | 53 | –
25 | > 50 | – | Cc1cc([C@@H]2[C@@H]3O[C@@H](C[C@H]3O)[C@@H]2C(=O)Nc2ccc(Cl)c(Cl)c2)ccn1 (single isomer, unassigned) [Example 53b] | 119 | –
26 | 4.2 | – | O=C(Nc1ccc(Cl)c(Cl)c1)[C@H]1[C@@H](c2ccnc(F)c2)[C@H]2O[C@@H]1C[C@@H]2F [Example 22, (1R,2S,3S,4R,5S)-N-(3,4-dichlorophenyl)-5-fluoro-3-(2-fluoropyridin-4-yl)-7-oxabicyclo[2.2.1]heptane-2-carboxamide] | 128 | –
27 | 5.4 | – | O=C(Nc1ccc(Cl)c(Cl)c1)[C@H]1[C@@H]2O[C@@H]([C@H]3C[C@H]32)[C@@H]1c1cncnc1 (single isomer, unassigned) [Example 126a] | 233 | –
28 | 33 | – | Cc1ccc([C@H]2[C@H]3O[C@H](C[C@@H]3F)[C@@H]2C(=O)Nc2ccc(Cl)c(Cl)c2)cn1 [Example 115, (1R,2R,3S,4R,5S)—N-(3,4-dichlorophenyl)-5-fluoro-3-(6-methylpyridin-3-yl)-7-oxabicyclo[2.2.1]heptane-2-carboxamide] | 49 | –
29 | > 50 | – | O=C(Nc1cnc(Cl)c(Cl)c1)[C@@H]1[C@@H]2O[C@@H]([C@H]3C[C@H]32)[C@@H]1c1ccncc1 (racemic) [Example 43, rac-(1S,2S,4R,5R,6S,7S)—N-(5,6-dichloropyridin-3-yl)-7-(pyridin-4-yl)-8-oxatricyclo[3.2.1.0^2,4]octane-6-carboxamide] | 168 | –
